# According to patent publication US20240199651A1, “ANTIBACTERIAL COMPOUNDS” (JANSSEN SCIENCES IRELAND UNLIMITED COMPANY, priority 2021, published 2024):
# Read-outs that look alike come from different tables or passages of the source.
# Columns and labels:
# in vitro = in vitro ADME; conditions: human, plasma
# Source text: PPB % Free (Human at 1 μm)
# [1] = LM CLint (microsomal stability), mouse; type: in vitro ADME; conditions: for microsomal CLint at 1 µM: microsomes
# Source text: (§1) The compounds of the invention/examples may have advantages associated with in vitro potency, kill kinetics (i.e. bactericidal effect) in vitro, PK properties, food effect, safety/toxicity (including liver toxicity, coagulation, 5-LO oxygenase), metabolic stability, Ames II negativity, MNT negativity, aqueous based solubility (and ability to formulate) and/or cardiovascular effect e.g. on animals (e.g. anesthetized guinea pig). Data that is generated/calculated may be obtained using standard methods/assays, for instance that are available in the literature or which may be performed by a supplier (e.g. Microsomal Stability Assay—Cyprotex, Mitochondrial toxicity (Glu/Gal) assay—Cyprotex, as well as literature CYP cocktail inhibition assays). GSH can be measured (reactive metabolites, glucuronidation) to observe if a dihydrodiol is observed by LCMS (fragmentation ions), which would correspond to a dihydroxylation on the core heterocycle.
# (§2) CLint Microsomes (μL/Min/Mg) in Dog (d), Human (h), Mouse (m) and Rat (r) (all at 1 μm)
# [2] = tested on: Mycobacterium tuberculosis strain EH4.0 expressing green-fluorescent protein (GFP); assay: microbe, parasite or virus in culture; type: cell-based
# [3] = LM CLint (microsomal stability), human; type: in vitro ADME; conditions: for microsomal CLint at 1 µM: liver microsomes, read-out: CLint Microsomes, Human (h); for CLint Microsomes, Human (h): 1 μm
# Source text: as §1, §2
# [4] = Mitochondrial toxicity (Glu/Gal) assay; type: cell-based; set-up: Glu/Gal: Glu / Glu/Gal: Gal: unit not given here; conditions: for Glu/Gal: Glu: first value (Glu); for Glu/Gal: Gal: second value (Gal); for Δ IC50, glu/IC50, gal: ratio IC50 glu / IC50 gal
# [5] = LM CLint (microsomal stability), rat; type: in vitro ADME; conditions: for microsomal CLint at 1 µM: microsomes
# Source text: as §1, §2
# [6] = Chemical stability testing (LCMS); type: physicochemical; conditions: for chemical stability, purity by LCMS: 0.065 mg/mL
# Protocol: • Add 3 μl of a 10 mM DMSO stock solution to 1 ml of the following solvents in a 1.5 ml HPLC vial. • DMSO (reference solution) • H2O/Acetonitril 1/1 (assay solution) • 0.1N HCl/Acetonitril 1/1 (assay solution) • Mix well, […] LCMS • Compare the chromatograms of the two assay solutions with the reference solution and report the additional peaks as degradation peaks
# AMES II = type: cell-based; conditions: score
# Source text: as §1
# [7] = LM CLint (microsomal stability), dog; type: in vitro ADME; conditions: for microsomal CLint at 1 µM: microsomes
# Source text: as §1, §2
# MDCK = MDCK permeability (AB+inh, BA/AB); conditions: with inhibitor
# [8] = 1 μm, read-out: CLint Microsomes, Mouse (m)
# [9] = Mycobacterium tuberculosis, Test 1 (and/or Test 2), M. tuberculosis
# [10] = galactose medium (Glu/Gal mitotoxicity assay), read-out: IC50, gal
# [11] = glucose medium (Glu/Gal mitotoxicity assay), read-out: IC50, glu
smiles,measurement,setting,value
CCc1nc2ccc(Cl)cn2c1C(=O)NCc1ccc(-c2nc3n(n2)CCN(S(=O)(=O)C(F)(F)F)C3)cc1 [Compound 1],fraction unbound at 1 µM,in vitro,0.00047
same,microsomal CLint at 1 µM,[1]; [8],49.2 µL/min/mg
same,IC50,[2]; [9],7.76 nM
same,microsomal CLint at 1 µM,[3],30.3 µL/min/mg
same,IC50,"[4]; read-out: IC50, gal",> 200 µM
same,IC50,"[4]; read-out: IC50, glu",> 200 µM
CCc1nc2ncc(Cl)cn2c1C(=O)NCc1ccc(-c2nc3n(n2)CCN(S(=O)(=O)C(F)(F)F)C3)cc1 [Compound 2],"CLint Microsomes, Rat (r)",[5]; 1 μm,< 7.7 μL/Min/Mg
same,microsomal CLint at 1 µM,[5],< 7.7 µL/min/mg
same,"chemical stability, purity by LCMS",[6]; 0 h,99.56%
same,"chemical stability, purity by LCMS",[6]; 0.25 h,99.38%
same,"chemical stability, purity by LCMS",[6]; 0.5 h,99.21%
same,"chemical stability, purity by LCMS",[6]; 1 h,98.89%
same,"chemical stability, purity by LCMS",[6]; 2 h,98.28%
same,"chemical stability, purity by LCMS",[6]; 4 h,97.1%
same,"chemical stability, % by LCMS","[6]; 72 h, 30 µM",100%
same,"chemical stability, % by LCMS","[6]; 72 h, 30 µM, pH 1.6",90.52%
same,AMES II,AMES II,1
same,"CLint Microsomes, Dog (d)",[7]; 1 μm,< 7.7 μL/Min/Mg
same,microsomal CLint at 1 µM,[7],< 7.7 µL/min/mg
same,MDCK AB+inh,MDCK,32.5
same,microsomal CLint at 1 µM,[1],< 7.7 µL/min/mg
same,Glu/Gal: Glu,[4],> 100
same,IC50,"[4]; read-out: IC50, gal",> 100 µM
same,IC50,"[4]; read-out: IC50, glu",> 100 µM
same,Glu/Gal: Gal,[4],> 100
CCc1nc2ncc(C)cn2c1C(=O)NCc1ccc(-c2nc3n(n2)CCN(S(=O)(=O)C(F)(F)F)C3)c(F)c1 [Compound 7],"chemical stability, % by LCMS","[6]; 72 h, 30 µM",100%
same,"chemical stability, % by LCMS","[6]; 72 h, 30 µM, pH 1.6",100%
same,MDCK AB+inh,MDCK,21.4
same,microsomal CLint at 1 µM,[1],< 7.7 µL/min/mg
same,Glu/Gal: Glu,[4],> 200
same,IC50,"[4]; read-out: IC50, gal",> 200 µM
same,IC50,"[4]; read-out: IC50, glu",> 200 µM
same,Glu/Gal: Gal,[4],> 200
CCc1nc2ccc(C)cn2c1C(=O)NCc1ccc(-c2nc3n(n2)CCN(S(=O)(=O)C(F)(F)F)C3)cc1 [Compound 24],"chemical stability, % by LCMS","[6]; 0 h, 30 µM",100%
same,"chemical stability, % by LCMS","[6]; 0 h, 30 µM, pH 1.6",100%
same,"chemical stability, % by LCMS","[6]; 0 h, 30 µM, pH 9",89.46%
same,"chemical stability, % by LCMS","[6]; 48 h, 30 µM",100%
same,"chemical stability, % by LCMS","[6]; 48 h, 30 µM, pH 1.6",100%
same,"chemical stability, % by LCMS","[6]; 48 h, 30 µM, pH 9",43.8%
same,microsomal CLint at 1 µM,[1]; [8],76.3 µL/min/mg
same,microsomal CLint at 1 µM,[3],169 µL/min/mg
same,IC50,"[4]; read-out: IC50, gal",> 200 µM
same,IC50,"[4]; read-out: IC50, glu",> 200 µM
Cc1cnc2nc(C3CC3)c(C(=O)NCc3ccc(-c4nc5n(n4)CCN(S(=O)(=O)C(F)(F)F)C5)cc3)n2c1 [Compound 42],"chemical stability, % by LCMS","[6]; 48 h, 30 µM",100%
same,"chemical stability, % by LCMS","[6]; 48 h, 30 µM, pH 1.6",100%
same,fraction unbound at 1 µM,in vitro,0.029
same,microsomal CLint at 1 µM,[1]; [8],20.4 µL/min/mg
same,microsomal CLint at 1 µM,[3],47.1 µL/min/mg
same,IC50,"[4]; read-out: IC50, gal",> 25 µM
same,IC50,"[4]; read-out: IC50, glu",> 25 µM
CCc1nc2ncc(C)cn2c1C(=O)NCc1ccc(-c2cc3n(n2)CCN(S(=O)(=O)C(F)(F)F)C3)cc1 [Compound 44],"chemical stability, % by LCMS","[6]; 48 h, 30 µM",100%
same,"chemical stability, % by LCMS","[6]; 48 h, 30 µM, pH 1.6",100%
same,microsomal CLint at 1 µM,[1]; [8],20 µL/min/mg
same,microsomal CLint at 1 µM,[3],176 µL/min/mg
same,IC50,"[4]; read-out: IC50, gal",> 200 µM
same,IC50,"[4]; read-out: IC50, glu",> 200 µM
CCc1nc2ncc(C)cn2c1C(=O)NCc1ccc(-c2nc3n(n2)CCN(S(=O)(=O)N2CCCC2)C3)cc1 [Compound 47],"chemical stability, % by LCMS","[6]; 48 h, 30 µM",99%
same,"chemical stability, % by LCMS","[6]; 48 h, 30 µM, pH 1.6",100%
same,microsomal CLint at 1 µM,[1]; [8],13.9 µL/min/mg
same,microsomal CLint at 1 µM,[3],58.5 µL/min/mg
same,IC50,"[4]; read-out: IC50, gal",> 200 µM
same,IC50,"[4]; read-out: IC50, glu",> 200 µM
CCc1nc2ncc(C)cn2c1C(=O)NCCc1ccc(-c2nc3n(n2)CCN(S(=O)(=O)C(F)(F)F)C3)cc1 [Compound 66],"chemical stability, % by LCMS","[6]; 0 h, 30 µM",91%
same,"chemical stability, % by LCMS","[6]; 48 h, 30 µM",98%
same,"chemical stability, % by LCMS","[6]; 48 h, 30 µM, pH 1.6",98%
same,microsomal CLint at 1 µM,[1]; [8],92.3 µL/min/mg
same,IC50,[2]; [9],269 nM
same,microsomal CLint at 1 µM,[3],39.6 µL/min/mg
same,IC50,"[4]; read-out: IC50, gal",> 200 µM
same,IC50,"[4]; read-out: IC50, glu",> 200 µM
CCc1nc2ncc(C)cn2c1C(=O)NCc1ccc(-c2cn3c(n2)CN(S(=O)(=O)C(F)(F)F)CC3)c(F)c1 [Compound 80],"chemical stability, % by LCMS","[6]; ACN/0.1N HCl (pH 1.6; 0 hr, rt)",100%
same,"chemical stability, % by LCMS","[6]; ACN/0.1N HCl (pH 1.6; 48 hr, rt)",100%
same,"chemical stability, % by LCMS","[6]; ACN/0.1N NaOH (pH 9-10; 0 hr, rt)",76.8%
same,"chemical stability, % by LCMS","[6]; ACN/0.1N NaOH (pH 9-10; 48 hr, rt)",16.8%
same,"chemical stability, % by LCMS","[6]; DMSO (0 hr, rt)",100%
same,"chemical stability, % by LCMS","[6]; DMSO (48 hr, rt)",100%
same,"CLint Microsomes, Mouse (m)",[1]; 1 μm,13.2 μL/Min/Mg
same,pIC50,[2],8.06
same,"CLint Microsomes, Human (h)",[3],39.8 μL/Min/Mg
same,IC50,[4]; [10],> 200 µM
same,IC50,[4]; [11],> 200 µM
CCc1nc2ccc(C)cn2c1C(=O)NCc1ccc(-c2cc3n(n2)CCN(S(=O)(=O)C(F)(F)F)C3)cc1 [Compound 81],microsomal CLint at 1 µM,"[5]; 1 μm, read-out: CLint Microsomes, Rat (r)",80.7 µL/min/mg
same,"chemical stability, % by LCMS","[6]; 0 h, 30 µM",95%
same,"chemical stability, % by LCMS","[6]; 48 h, 30 µM",100%
same,"chemical stability, % by LCMS","[6]; 48 h, 30 µM, pH 1.6",100%
same,microsomal CLint at 1 µM,"[7]; 1 μm, read-out: CLint Microsomes, Dog (d)",189 µL/min/mg
same,microsomal CLint at 1 µM,[1]; [8],74.8 µL/min/mg
same,microsomal CLint at 1 µM,[3],> 347 µL/min/mg
same,IC50,"[4]; read-out: IC50, gal",> 200 µM
same,IC50,"[4]; read-out: IC50, glu",> 200 µM
CCc1nc2ncc(C)cn2c1C(=O)NCc1ccc(-c2cc3n(n2)CCN(S(=O)(=O)C(F)(F)F)C3)c(F)c1 [Compound 82],"chemical stability, % by LCMS","[6]; 48 h, 30 µM",100%
same,"chemical stability, % by LCMS","[6]; 48 h, 30 µM, pH 1.6",100%
same,AMES II,AMES II,1
same,MDCK AB+inh,MDCK,16.2
same,Glu/Gal: Glu,[4],> 25
same,IC50,"[4]; read-out: IC50, gal",> 25 µM
same,IC50,"[4]; read-out: IC50, glu",> 25 µM
same,Glu/Gal: Gal,[4],> 25
CCc1nc2ncc(C)cn2c1C(=O)NCc1ccc(-c2cc3n(n2)CCN(S(=O)(=O)C(F)(F)F)C3)c(C)c1 [Compound 84],"CLint Microsomes, Mouse (m)",[1]; 1 μm,21.2 μL/Min/Mg
same,AC50,[2],7.6 nM
same,"CLint Microsomes, Human (h)",[3],205 μL/Min/Mg
same,IC50,[4]; [10],62.5 µM
same,IC50,[4]; [11],> 200 µM
same,"Δ IC50, glu/IC50, gal",[4],>3.2
Cc1cnc2nc(C3CC3)c(C(=O)NCc3ccc(-c4cn5c(n4)CN(S(=O)(=O)C(F)(F)F)CC5)cc3)n2c1 [Compound 94],microsomal CLint at 1 µM,[1]; [8],18.1 µL/min/mg
same,AC50,[2]; [9],63 nM
same,microsomal CLint at 1 µM,[3],98.1 µL/min/mg
same,IC50,"[4]; read-out: IC50, gal",> 200 µM
same,IC50,"[4]; read-out: IC50, glu",> 200 µM
Cc1cnc2nc(C3CC3)c(C(=O)NCc3ccc(-c4nc5n(n4)CCN(S(=O)(=O)C(F)(F)F)C5)c(C)c3)n2c1 [Compound 98],microsomal CLint at 1 µM,[1]; [8],26.9 µL/min/mg
same,AC50,[2]; [9],17 nM
same,microsomal CLint at 1 µM,[3],51.8 µL/min/mg
same,Score,"[4]; mitotoxicity score, Glu/Gal assay",[x]1
same,"Δ IC50, glu/IC50, gal",[4],1.81
same,IC50,"[4]; read-out: IC50, gal",97.8 µM
same,IC50,"[4]; read-out: IC50, glu",177 µM
CCc1nc2ncc(C)cn2c1C(=O)NCc1ccc(-c2cc3n(n2)CCN(S(=O)(=O)C(F)(F)F)C3)nc1 [Compound 127],microsomal CLint at 1 µM,[1]; [8],9.29 µL/min/mg
same,AC50,[2]; [9],49 nM
same,microsomal CLint at 1 µM,[3],31.5 µL/min/mg
same,IC50,"[4]; read-out: IC50, gal",> 200 µM
same,IC50,"[4]; read-out: IC50, glu",> 200 µM
